From patent US12559506B2, “Indazole based compounds and associated methods of use” (Arvinas Operations, Inc., priority 2021, dated 2026)

Target: T1, LRRK2 (endogenous, HiBit tagged) (Homo sapiens, UniProt Q5S007)
T1 construct: endogenous in cells; host or cells: HEK293 cells with HiBit knock-in at the endogenous LRRK2 locus, stably expressing firefly luciferase
Assay: Endogenous LRRK2 degradation assay, endogenous gene C-terminally HiBit-tagged in HEK293 cells (Nano-Glo Dual Luciferase)
Type: cell-based
Settings: endogenous HiBit-tagged LRRK2, HEK293 cells, 24 hours; for Dmax: read-out: **Endogenous WT Dmax (%); for DC50: read-out: *Endogenous WT DC50
Excerpt: Exemplary Assay for Testing LRRK2 Degradation Driven by Exemplary Hetero-Bifunctional Compounds Designed to Target LRRK2
The assay measures the degradation of LRRK2 in cells where the C-terminus (3′) of the endogenous gene has been tagged with a HiBit sequence in HEK293 cells. The cells also express firefly luciferase, expressed from a Cytomegalovirus promoter and introduced into the HiBit tagged cells and stably expressed. The Nano-Glo® Dual Luciferase Reporter Assay System (Promega™, Madison, WI) was utilized.
Day 1—Preparation of Compound and Assay Plates. Two sets of plates were prepared: a triplicate set for the HiBit assay in white 384-well plates and a triplicate set of plate in black 384-well plates for the Alamar Blue cell viability assay. Briefly, the growth media (DMEM+Glutamax-10% fetal bovine serum-1% Penicillin-Streptomicin) from two T128 flasks was aspirated from the flasks. Cells were washed with Dulbecco's Phosphate Buffered Saline (dPBS) and aspirated. Trypsin (3 mL per flask) was added and the flasks were incubated for 2-3 minutes.
Ten mL of OptiMEM-10% fetal bovine-1% penicillin-streptomycin (hereinafter, “OptiMEM media”) was added to the flask and the cells and transferred to a 50 mL conical tube. A cell count (25 ul of cell into Effendorf vial+25 ul of Trypan Blue Stain) was performed and the cell density adjusted to 15,000 cell/45 μl/well (3.33×10^5/mL) in OptiMEM media.
Fourty-five microliters of the cell suspension (15,000 cells) was aliquoted to each well of the white 384-well plate. The plates incubated at room temperature for 10 minutes before being placed in the 37° C.+5% CO2 incubator overnight
Day 2—Compound Treatment. Exemplary compounds were prepared at a 1 mM starting concentration and 1:3 serial dilution for 11 points CRC prepared and stored in the freezer. The Master Compound Plate was thawed overnight at room temperature. DMSO (20 μL) was added into column 24 of the Master Compound Plate for negative control and 20 μL of 300 μM of Compound 4 in column 23 as positive control.
Intermediate Compound Plate with 4% DMSO in OptiMEM Media. DMSO was added to warm OptiMEM media to achieve a 4% DMSO solution (approximately 50 mL/plate). One-hundred microliters of the OptiMEM-4% DMSO was aliquoted to each well of 384-Well Deep Well Microplates.
The Master Compound Plate and the Intermediate Compound Plate were spun down.
One microliter of compound from the Master Compound Plate was transferred into the Intermediate plate (a 1:100 dilution). The diluted mixture was mixed and 5 μL transferred into the assay plate (a 1:10 dilution) for the final starting concentration of 1 μM. The Treated Assay plates were incubated for 24 hours at 37° C.+5% CO2. The Master Compound Plate was sealed and store at room temperature for a second run that was performed within a week.
Day 3—HiBit Assay. Five microliters of Alamar Blue was added to each well of the black 384-well plates. The plates were incubated for 2 hours in the incubator (37° C.+5% CO2) and at room temperature for one hour. Fluorescence of each plate was read on a plated reader for the Alamar Blue viability assay.
One set of white assay plates was warmed to room temperature (45 minute).
The One Glo luciferase mixture was prepared. The media from white 384-well assay plates was aspirated. Twenty-five μL of the One Glo luciferase mixture was added to each well of the assay plates. The plates were incubated on the bench (room temperature) for 45 minutes, including 10 minutes of shaking at 700 rpm. The luminescence of each plate was read on a plate reader.
1:100 DLR substrate and 1:100 LgBiT Protein dilution were added to the Promega Stop and Glo buffer and mixed just before addition to assay plates. Twenty-five microliters of Stop and Glo mixture was added to each well. Assay plates incubated for at least 45 minutes, including 10 minutes of shaking at 700 rpm. The luminescence of each plate was read on a plate reader.
Analysis of LRRK2 HiBit Screening assays. […]

T1 sequence (Q5S007 whole entry): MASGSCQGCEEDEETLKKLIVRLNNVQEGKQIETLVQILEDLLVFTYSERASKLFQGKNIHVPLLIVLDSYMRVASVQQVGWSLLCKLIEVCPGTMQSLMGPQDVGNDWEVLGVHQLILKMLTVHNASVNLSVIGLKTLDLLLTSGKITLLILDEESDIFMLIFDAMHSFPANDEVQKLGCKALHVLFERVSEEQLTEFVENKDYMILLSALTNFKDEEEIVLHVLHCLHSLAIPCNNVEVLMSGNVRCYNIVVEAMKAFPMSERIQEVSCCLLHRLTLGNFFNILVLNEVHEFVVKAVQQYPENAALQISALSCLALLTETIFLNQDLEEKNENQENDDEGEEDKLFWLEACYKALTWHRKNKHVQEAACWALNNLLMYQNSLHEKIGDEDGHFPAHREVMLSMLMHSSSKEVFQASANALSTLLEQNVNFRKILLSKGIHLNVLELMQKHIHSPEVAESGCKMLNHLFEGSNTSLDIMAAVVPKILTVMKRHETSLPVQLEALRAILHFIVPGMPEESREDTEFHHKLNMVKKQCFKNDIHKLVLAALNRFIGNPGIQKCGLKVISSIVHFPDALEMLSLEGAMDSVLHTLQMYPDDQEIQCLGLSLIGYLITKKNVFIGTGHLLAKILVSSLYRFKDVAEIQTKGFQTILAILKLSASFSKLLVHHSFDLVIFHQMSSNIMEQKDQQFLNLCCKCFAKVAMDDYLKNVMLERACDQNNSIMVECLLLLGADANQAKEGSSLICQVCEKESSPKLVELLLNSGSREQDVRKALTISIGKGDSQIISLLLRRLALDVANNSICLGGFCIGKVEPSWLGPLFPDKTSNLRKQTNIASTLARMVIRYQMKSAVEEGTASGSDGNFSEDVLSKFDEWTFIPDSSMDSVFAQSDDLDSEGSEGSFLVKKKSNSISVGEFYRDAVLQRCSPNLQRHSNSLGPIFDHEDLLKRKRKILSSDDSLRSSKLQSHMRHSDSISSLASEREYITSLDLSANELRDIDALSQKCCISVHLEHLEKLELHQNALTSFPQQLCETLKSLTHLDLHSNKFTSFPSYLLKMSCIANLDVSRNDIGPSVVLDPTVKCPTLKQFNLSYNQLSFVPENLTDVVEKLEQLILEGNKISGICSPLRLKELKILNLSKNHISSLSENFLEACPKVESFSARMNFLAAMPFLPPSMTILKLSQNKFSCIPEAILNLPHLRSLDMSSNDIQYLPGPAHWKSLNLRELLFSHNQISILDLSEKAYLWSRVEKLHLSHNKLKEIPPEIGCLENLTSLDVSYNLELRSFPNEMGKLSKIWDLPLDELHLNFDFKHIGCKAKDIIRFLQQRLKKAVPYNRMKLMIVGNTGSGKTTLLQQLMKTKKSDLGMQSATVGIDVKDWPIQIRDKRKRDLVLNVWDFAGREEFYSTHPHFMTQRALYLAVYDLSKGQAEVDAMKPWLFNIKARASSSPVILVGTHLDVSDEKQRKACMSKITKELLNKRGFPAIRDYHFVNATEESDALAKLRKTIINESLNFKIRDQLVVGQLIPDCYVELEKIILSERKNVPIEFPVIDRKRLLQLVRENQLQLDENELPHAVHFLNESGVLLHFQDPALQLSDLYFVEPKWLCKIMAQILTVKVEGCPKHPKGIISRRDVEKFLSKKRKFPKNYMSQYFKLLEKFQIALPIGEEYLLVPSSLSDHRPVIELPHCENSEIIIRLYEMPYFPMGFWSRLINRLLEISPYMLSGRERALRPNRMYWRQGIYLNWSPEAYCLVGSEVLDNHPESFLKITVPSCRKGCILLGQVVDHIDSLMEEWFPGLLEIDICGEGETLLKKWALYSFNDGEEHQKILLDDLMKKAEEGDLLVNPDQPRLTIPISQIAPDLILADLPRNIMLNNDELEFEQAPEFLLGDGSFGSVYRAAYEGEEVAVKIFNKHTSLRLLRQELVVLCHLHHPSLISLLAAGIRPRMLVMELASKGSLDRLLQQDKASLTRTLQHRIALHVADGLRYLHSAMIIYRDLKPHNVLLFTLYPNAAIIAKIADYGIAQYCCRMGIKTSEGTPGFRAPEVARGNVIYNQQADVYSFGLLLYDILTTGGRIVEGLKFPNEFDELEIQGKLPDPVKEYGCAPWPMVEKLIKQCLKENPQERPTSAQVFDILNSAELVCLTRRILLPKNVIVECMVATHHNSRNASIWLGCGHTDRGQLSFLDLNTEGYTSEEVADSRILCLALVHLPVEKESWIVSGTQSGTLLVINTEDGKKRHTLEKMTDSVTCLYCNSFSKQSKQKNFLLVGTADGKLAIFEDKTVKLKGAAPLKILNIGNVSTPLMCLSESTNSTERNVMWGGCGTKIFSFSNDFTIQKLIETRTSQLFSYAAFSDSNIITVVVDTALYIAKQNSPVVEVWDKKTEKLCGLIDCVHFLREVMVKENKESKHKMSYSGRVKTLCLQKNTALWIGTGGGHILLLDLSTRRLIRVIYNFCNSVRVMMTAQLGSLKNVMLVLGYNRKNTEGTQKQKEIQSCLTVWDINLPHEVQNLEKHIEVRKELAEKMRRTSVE

In the case of CC1(Oc2cc3c(-c4cc(N5CCN(CC6(F)CCN(CC7CCN(c8cc9c(cc8F)C(=O)N(C8CCC(=O)NC8=O)C9)CC7)CC6)CC5)ncn4)[nH]nc3cc2F)CC1 (centres unmarked) [Compound 195, 3-[6-fluoro-5-[4-[[4-fluoro-4-[[4-[6-[6-fluoro-5-(1-methylcyclopropoxy)-2H-indazol-3-yl]pyrimidin-4-yl]piperazin-1-yl]methyl]-1-piperidyl]methyl]-1-piperidyl]-1-oxo-isoindolin-2-yl]piperidine-2,6-dione], the Dmax is reported as no less than 70% and the DC50 is reported as less than 10 nM.
In the case of C[C@H]1CN(c2cc(-c3[nH]nc4cc(F)c(OC5(C)CC5)cc34)ncn2)CCN1CC1(F)CCN(CC2CCN(c3cc4c(cc3F)C(=O)N(C3CCC(=O)NC3=O)C4)CC2)CC1 (stereo partly drawn) [Compound 197, 3-(6-fluoro-5-{4-[(4-fluoro-4-{[(2S)-4-{6-[6-fluoro-5-(1-methylcyclopropoxy)-2H-indazol-3-yl]pyrimidin-4-yl}-2-methylpiperazin-1-yl]methyl}piperidin-1-yl)methyl]piperidin-1-yl}-1-oxo-2,3-dihydro-1H-isoindol-2-yl)piperidine-2,6-dione], the Dmax is reported as no less than 70% and the DC50 is reported as less than 10 nM.
COc1cc2c(cc1N1CCC(CN3CCC(F)(CN4CCN(c5cc(-c6[nH]nc7ccc(OC8(C)CC8)cc67)ncn5)CC4)CC3)CC1)CN(C1CCC(=O)NC1=O)C2=O (centres unmarked) [Compound 198, 3-[5-[4-[[4-fluoro-4-[[4-[6-[5-(1-methylcyclopropoxy)-2H-indazol-3-yl]pyrimidin-4-yl]piperazin-1-yl]methyl]-1-piperidyl]methyl]-1-piperidyl]-6-methoxy-1-oxo-isoindolin-2-yl]piperidine-2,6-dione] showed a Dmax of no less than 70% and a DC50 of less than 10 nM.
CC1(Oc2cc3c(-c4cc(N5CCC(CN6CCC(F)(CN7CCN(c8ccc9c(c8F)CN(C8CCC(=O)NC8=O)C9=O)CC7)CC6)CC5)ncn4)n[nH]c3cc2F)CC1 (centres unmarked) [Compound 199, 3-{4-fluoro-5-[4-({4-fluoro-1-[(1-{6-[6-fluoro-5-(1-methylcyclopropoxy)-1H-indazol-3-yl]pyrimidin-4-yl}piperidin-4-yl)methyl]piperidin-4-yl}methyl)piperazin-1-yl]-1-oxo-2,3-dihydro-1H-isoindol-2-yl}piperidine-2,6-dione] was tested, and the Dmax was no less than 70% and the DC50 was less than 10 nM.
CC1(Oc2ccc3n[nH]c(-c4cc(N5CC(OCC6(F)CCN(CC7CCN(c8ccc9c(c8F)CN(C8CCC(=O)NC8=O)C9=O)CC7)CC6)C5)ncn4)c3c2)CC1 (centres unmarked) [Compound 200, 3-[4-fluoro-5-[4-[[4-fluoro-4-[[1-[6-[5-(1-methylcyclopropoxy)-2H-indazol-3-yl]pyrimidin-4-yl]azetidin-3-yl]oxymethyl]-1-piperidyl]methyl]-1-piperidyl]-1-oxo-isoindolin-2-yl]piperidine-2,6-dione] was tested, and the Dmax was no less than 70% and the DC50 was less than 10 nM.
Work on CC1(Oc2cc3c(-c4cc(N5CCC(CN6CCN(CC7CCN(c8ccc9c(c8F)CN(C8CCC(=O)NC8=O)C9=O)CC7)CC6)CC5)ncn4)n[nH]c3cn2)CC1 (centres unmarked) [Compound 201, 3-(4-fluoro-5-(4-((4-((1-(6-(5-(1-methylcyclopropoxy)-1H-pyrazolo[3,4-c]pyridin-3-yl)pyrimidin-4-yl)piperidin-4-yl)methyl)piperazin-1-yl)methyl)piperidin-1-yl)-1-oxoisoindolin-2-yl)piperidine-2,6-dione] yielded a Dmax of no less than 70% and a DC50 of less than 10 nM.
CC1(Oc2ccc3[nH]nc(-c4cc(N5CCN(C[C@H]6CC[C@H](CN7CCN(c8ccc9c(c8F)CN(C8CCC(=O)NC8=O)C9=O)CC7)CC6)CC5)ncn4)c3c2)CC1 (some centres unmarked) [Compound 202, 3-[4-fluoro-5-[[4-[[4-[4-[6-[5-(1-methylcyclopropoxy)-1H-indazol-3-yl]pyrimidin-4-yl]piperazin-1-yl]methyl]cyclohexyl]methyl]piperazin-1-yl]-1-oxo-isoindolin-2-yl]piperidine-2,6-dione] showed a Dmax of no less than 70% and a DC50 of less than 10 nM.
